Source: PubChem BioAssay (NCI)
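GI50 marks 50% less growth. TGI: concentration producing complete growth inhibition.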

Key:
Test in all cases: NCI-60 cell line screen, 384-well format
786-0 renal = test system: 786-0 renal
A498 renal = test system: A498 renal
A549 NSCLC = test system: A549 NSCLC
ACHN renal = test system: ACHN renal
BT-549 breast = test system: BT-549 breast
CAKI-1 renal = test system: CAKI-1 renal
CCRF-CEM leukemia = test system: CCRF-CEM leukemia
COLO 205 colon = test system: COLO 205 colon
DU-145 prostate = test system: DU-145 prostate
EKVX NSCLC = test system: EKVX NSCLC
HCC-2998 colon = test system: HCC-2998 colon
HCT-15 colon = test system: HCT-15 colon
HL-60(TB) leukemia = test system: HL-60(TB) leukemia
HOP-62 NSCLC = test system: HOP-62 NSCLC
HOP-92 NSCLC = test system: HOP-92 NSCLC
HS 578T breast = test system: HS 578T breast
HT29 colon = test system: HT29 colon
IGROV1 ovarian = test system: IGROV1 ovarian
K-562 leukemia = test system: K-562 leukemia
KM12 colon = test system: KM12 colon
LOX IMVI melanoma = test system: LOX IMVI melanoma
M14 melanoma = test system: M14 melanoma
MALME-3M melanoma = test system: MALME-3M melanoma
MCF7 breast = test system: MCF7 breast
MDA-MB-231 breast = test system: MDA-MB-231 breast
MDA-MB-435 melanoma = test system: MDA-MB-435 melanoma
MDA-MB-468 breast = test system: MDA-MB-468 breast
MOLT-4 leukemia = test system: MOLT-4 leukemia
NCI-H226 lung = test system: NCI-H226 lung
NCI-H23 lung = test system: NCI-H23 lung
NCI-H322M lung = test system: NCI-H322M lung
NCI-H460 NSCLC = test system: NCI-H460 NSCLC
NCI-H522 lung = test system: NCI-H522 lung
NCI/ADR-RES ovarian = test system: NCI/ADR-RES ovarian
OVCAR-3 ovarian = test system: OVCAR-3 ovarian
OVCAR-4 ovarian = test system: OVCAR-4 ovarian
OVCAR-5 ovarian = test system: OVCAR-5 ovarian
OVCAR-8 ovarian = test system: OVCAR-8 ovarian
PC-3 prostate = test system: PC-3 prostate
RPMI-8226 leukemia = test system: RPMI-8226 leukemia
RXF 393 renal = test system: RXF 393 renal
SF-268 CNS = test system: SF-268 CNS
SF-295 CNS = test system: SF-295 CNS
SF-539 CNS = test system: SF-539 CNS
SK-MEL-28 melanoma = test system: SK-MEL-28 melanoma
SK-MEL-5 melanoma = test system: SK-MEL-5 melanoma
SK-OV-3 ovarian = test system: SK-OV-3 ovarian
SN12C renal = test system: SN12C renal
SNB-19 CNS = test system: SNB-19 CNS
SNB-75 CNS = test system: SNB-75 CNS
SR leukemia = test system: SR leukemia
SW-620 colon = test system: SW-620 colon
T-47D breast = test system: T-47D breast
TK-10 renal = test system: TK-10 renal
U251 glioblastoma = test system: U251 glioblastoma
UACC-257 melanoma = test system: UACC-257 melanoma
UACC-62 melanoma = test system: UACC-62 melanoma
UO-31 renal = test system: UO-31 renal

CSc1nc(N)cc(Oc2ccc(-c3nc(Nc4cccc(C(F)(F)F)c4)n[nH]3)cc2)n1
GI50 ([…]-0 renal): 368 nM | TGI (786-0 renal): 1590 nM | GI50 (A498 renal): 421 nM | TGI (A498 renal): 1920 nM | GI50 (A549 NSCLC): 625 nM | TGI (A549 NSCLC): 5520 nM | GI50 (ACHN renal): 618 nM | TGI (ACHN renal): 2730 nM | GI50 (BT-549 breast): 385 nM | TGI (BT-549 breast): 1620 nM | GI50 (CAKI-1 renal): 548 nM | TGI (CAKI-1 renal): 5090 nM | GI50 (CCRF-CEM leukemia): 175 nM | TGI (CCRF-CEM leukemia): 322 nM | GI50 (COLO 205 colon): 489 nM | TGI (COLO 205 colon): 4120 nM | GI50 (DU-145 prostate): 998 nM | TGI (DU-145 prostate): 4080 nM | GI50 (EKVX NSCLC): 599 nM | TGI (EKVX NSCLC): 4320 nM | GI50 (HCC-2998 colon): 367 nM | TGI (HCC-2998 colon): 1500 nM | GI50 (HCT-15 colon): 400 nM | TGI (HCT-15 colon): 1450 nM | GI50 (HL-60(TB) leukemia): 180 nM | TGI (HL-60(TB) leukemia): 325 nM | GI50 (HOP-62 NSCLC): 452 nM | TGI (HOP-62 NSCLC): 2190 nM | GI50 (HOP-92 NSCLC): 569 nM | TGI (HOP-92 NSCLC): 3250 nM | GI50 (HS 578T breast): 191 nM | TGI (HS 578T breast): 423 nM | GI50 (HT29 colon): 354 nM | TGI (HT29 colon): 1430 nM | GI50 (IGROV1 ovarian): 676 nM | TGI (IGROV1 ovarian): 3530 nM | GI50 (K-562 leukemia): 320 nM | TGI (K-562 leukemia): 968 nM | GI50 (KM12 colon): 425 nM | TGI (KM12 colon): 1850 nM | GI50 (LOX IMVI melanoma): 523 nM | TGI (LOX IMVI melanoma): 1790 nM | GI50 (M14 melanoma): 323 nM | TGI (M14 melanoma): 1210 nM | GI50 (MALME-3M melanoma): 315 nM | TGI (MALME-3M melanoma): 1000 nM | GI50 (MCF7 breast): 317 nM | TGI (MCF7 breast): 1840 nM | GI50 (MDA-MB-231 breast): 487 nM | TGI (MDA-MB-231 breast): 10000 nM | GI50 (MDA-MB-435 melanoma): 208 nM | TGI (MDA-MB-435 melanoma): 437 nM | GI50 (MDA-MB-468 breast): 202 nM | TGI (MDA-MB-468 breast): 414 nM | GI50 (MOLT-4 leukemia): 187 nM | TGI (MOLT-4 leukemia): 337 nM | GI50 (NCI-H226 lung): 1070 nM | TGI (NCI-H226 lung): 3630 nM | GI50 (NCI-H23 lung): 352 nM | TGI (NCI-H23 lung): 1940 nM | GI50 (NCI-H322M lung): 1850 nM | TGI (NCI-H322M lung): 6780 nM | GI50 (NCI-H460 NSCLC): 280 nM | TGI (NCI-H460 NSCLC): 756 nM | GI50 (NCI-H522 lung): 241 nM | TGI (NCI-H522 lung): 625 nM | GI50 (NCI/ADR-RES ovarian): 676 nM | TGI (NCI/ADR-RES ovarian): 2390 nM | GI50 (OVCAR-3 ovarian): 229 nM | TGI (OVCAR-3 ovarian): 492 nM | GI50 (OVCAR-4 ovarian): 457 nM | TGI (OVCAR-4 ovarian): 2210 nM | GI50 (OVCAR-5 ovarian): 2020 nM | TGI (OVCAR-5 ovarian): 6290 nM | GI50 (OVCAR-8 ovarian): 645 nM | TGI (OVCAR-8 ovarian): 2460 nM | GI50 (PC-3 prostate): 611 nM | TGI (PC-3 prostate): 3090 nM | GI50 (RPMI-8226 leukemia): 179 nM | TGI (RPMI-8226 leukemia): 368 nM | GI50 (RXF 393 renal): 326 nM | TGI (RXF 393 renal): 1030 nM | GI50 (SF-268 CNS): 463 nM | TGI (SF-268 CNS): 2520 nM | GI50 (SF-295 CNS): 458 nM | TGI (SF-295 CNS): 1900 nM | GI50 (SF-539 CNS): 349 nM | TGI (SF-539 CNS): 1350 nM | GI50 (SK-MEL-28 melanoma): 582 nM | TGI (SK-MEL-28 melanoma): 3640 nM | GI50 (SK-MEL-5 melanoma): 237 nM | TGI (SK-MEL-5 melanoma): 550 nM | GI50 (SK-OV-3 ovarian): 394 nM | TGI (SK-OV-3 ovarian): 2220 nM | GI50 (SN12C renal): 671 nM | TGI (SN12C renal): 5100 nM | GI50 (SNB-19 CNS): 637 nM | TGI (SNB-19 CNS): 5170 nM | GI50 (SNB-75 CNS): 340 nM | TGI (SNB-75 CNS): 1970 nM | GI50 (SR leukemia): 174 nM | TGI (SR leukemia): 333 nM | GI50 (SW-620 colon): 431 nM | TGI (SW-620 colon): 6370 nM | GI50 (T-47D breast): 294 nM | TGI (T-47D breast): 16900 nM | GI50 (TK-10 renal): 1510 nM | TGI (TK-10 renal): 6940 nM | GI50 (U251 glioblastoma): 581 nM | TGI (U251 glioblastoma): 2110 nM | GI50 (UACC-257 melanoma): 284 nM | TGI (UACC-257 melanoma): 902 nM | GI50 (UACC-62 melanoma): 377 nM | TGI (UACC-62 melanoma): 2860 nM | GI50 (UO-31 renal): 502 nM | TGI (UO-31 renal): 14300 nM
